From patent publication US12302841B2, “Soybean variety comprising high content of epicatechin” (AMOREPACIFIC CORPORATION, priority 2020, dated 2025)

Assays:
[1] = system: collagenase (MMP-1); experiment: Collagenase (MMP-1) expression inhibition test in human fibroblasts; assay type: cell-based; conditions: 10 μg/mL in serum-free DMEM, 24 hours, relative to untreated group
Experimental: In order to investigate the antiaging activity of the extract of the Aritaunkong bred in Example 1, the collagenase (MMP-1) expression-inhibiting effect of each of the soybean extracts prepared in Preparation Example was assessed. Specifically, after placing human fibroblasts (Cascade Biologics, Portland, OR, USA) on a 96-well microtiter plate containing DMEM (Dulbecco's modified Eagle's medium) supplemented with 2.5 wt % of fetal bovine serum at 5,000 cells/well, the cells were cultured until ˜90% confluency. Then, after culturing the cells in serum-free DMEM for 24 hours and treating with each of the three soybean extracts of Preparation Example or EGCG (Sigma-Aldrich) as a positive control group, dissolved in serum-free DMEM to 10 μg/mL, for 24 hours, the cell culture was collected. Subsequently, the degree of collagenase production in the collected cell culture was measured using a collagenase measurement kit (Amersham Pharmacia, USA). First, after placing the collected cell culture on a 96-well plate on which a primary collagenase antibody is coated uniformly, antigen-antibody reaction was conducted for 3 hours in a constant-temperature bath (36° C.). […] Collagenase expression inhibition (%)=(1−absorbance of substance-treated cell group/absorbance of control group)×100 [Equation 1]

[2] = Antioxidant activity test through DPPH reduction (DPPH radical-scavenging ability); assay type: biochemical; conditions: 100 μM DPPH in ethanol, 37° C. for 30 minutes, absorbance at 540 nm; sample concentration at which absorbance decreased by 50%
Experimental: In order to investigate the antioxidant activity of the extract of the Aritaunkong bred in Example 1, the DPPH (1,1-diphenyl-2-picrylhydrazyl) oxidation-inhibiting effect of each soybean extract prepared in Preparation Example was compared by monitoring the change in absorbance occurring as a result of reduction of DPPH. Specifically, after preparing 190 μL of a 100 μM (in ethanol) DPPH solution and the soybean extract of Preparation Example and the synthetic antioxidant Trolox (positive control group) to a concentration of 10,000 ppm, they were diluted to final concentrations of 500 ppm, 250 ppm, 125 ppm, 62.5 ppm, 31.25 ppm and 15.63 ppm. After preparing […] reaction solutions by mixing them, absorbance was measured at 540 nm after incubation at 37° C. for 30 minutes. The IC50 indicates the sample concentration when the absorbance was decreased by 50% due to the addition of the sample.

SMILES | Collagenase expression inhibition (%) [1] [%] | DPPH radical-scavenging ability (IC50) [2] [ppm]
O=C(O[C@@H]1Cc2c(O)cc(O)cc2O[C@@H]1c1cc(O)c(O)c(O)c1)c1cc(O)c(O)c(O)c1 [EGCG] | 60.8 | –
Cc1c(C)c2c(c(C)c1O)CCC(C)(C(=O)O)O2 (centres unmarked) [Trolox] | – | 53.2
